# “And” between values parts separate entries of the source, which are not always exact repeats. Identical values can stand only once. The source made the active and inactive calls.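 How the source made its calls: active means fitted potency at or below 10 µM with a response change of at least 30% across doses and an acceptable curve fit; inactive means the rest.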
# Biological target: GTPase HRas (Homo sapiens) (UniProt P01112)
# Assay: H-Ras wildtype GTP-binding inhibitors, SAR follow-up, biochemical, GST-H-Ras beads, Bodipy-FL-GTP, flow cytometry, multiplex, round 2 (AID 588630)
# Details: not given
# Chain of GTPase HRas (Homo sapiens) (P01112 whole entry, looked up): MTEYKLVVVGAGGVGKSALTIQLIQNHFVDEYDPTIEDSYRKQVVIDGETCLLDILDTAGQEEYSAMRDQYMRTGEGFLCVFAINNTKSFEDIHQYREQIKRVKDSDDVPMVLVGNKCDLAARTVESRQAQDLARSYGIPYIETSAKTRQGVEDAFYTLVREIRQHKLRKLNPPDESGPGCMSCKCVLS
row,SMILES,EC50
1,CC1(C)Cc2c(sc(NC(=S)NC(=O)c3ccc(Br)cc3)c2C(=O)O)CO1,597 nM
2,Cc1ccccc1C(=O)NC(=S)Nc1sc2c(c1C(=O)O)CC(C)(C)OC2,444 nM
3,CC1(C)Cc2c(sc(NC(=S)NC(=O)c3cccc(F)c3)c2C(=O)O)CO1,436 nM
4,Cc1ccc(C(=O)NC(=S)Nc2sc3c(c2C(=O)O)CC(C)(C)OC3)cc1,193 nM
5,COc1ccc(C(=O)NC(=S)Nc2sc3c(c2C(=O)O)CC(C)(C)OC3)cc1,250 nM
6,CC1(C)Cc2c(sc(NC(=S)NC(=O)C3CCCCC3)c2C(=O)O)CO1,625 nM
7,COc1cccc(C(=O)NC(=S)Nc2sc3c(c2C(=O)O)CC(C)(C)OC3)c1,275 nM
8,CC1(C)Cc2c(sc(NC(=S)NC(=O)c3ccc(F)cc3)c2C(=O)O)CO1,98 nM
9,CC1(C)Cc2c(sc(NC(=S)NC(=O)c3cccs3)c2C(=O)O)CO1,35 nM
10,COc1ccccc1C(=O)NC(=S)Nc1sc2c(c1C(=O)O)CC(C)(C)OC2,1320 nM
11,CC1(C)Cc2c(sc(NC(=S)NC(=O)c3ccco3)c2C(=O)O)CO1,79 nM

# Continued, values first:
row,EC50,SMILES
1,725 nM,CC1(C)Cc2c(sc(NC(=O)NC(=O)c3ccccc3)c2C(=O)O)CO1
2,140 nM,CC(C)(C)C1Cc2c(sc(NC(=S)NC(=O)c3ccccc3)c2C(=O)O)CO1 (centres undefined)
3,106 nM and 242 nM,O=C(NC(=S)Nc1sc2c(c1C(=O)O)CCOC2)c1ccccc1
4,31 nM,O=C(NC(=S)Nc1sc2c(c1C(=O)O)CC1(CCCC1)OC2)c1ccccc1
5,43 nM,CC1(C)CCc2sc(NC(=S)NC(=O)c3ccccc3)c(C(=O)O)c2C1
6,359 nM,CC1(C)Cc2c(sc(NC(=S)NC(=O)c3ccccc3F)c2C(=O)O)CO1
7,37 nM,CCC1(C)Cc2c(sc(NC(=S)NC(=O)c3ccccc3)c2C(=O)O)CO1 (centres undefined)
8,1390 nM,Cc1cccc(C(=O)NC(=S)Nc2sc3c(c2C(=O)O)CC(C)(C)OC3)c1
9,201 nM,CC1Cc2c(sc(NC(=S)NC(=O)c3ccccc3)c2C(=O)O)CO1 (centres undefined)
10,1780 nM,CC1(C)Cc2c(sc(NC(=S)NC(=O)c3ccccc3Br)c2C(=O)O)CO1
11,20 nM,CC1(C)Cc2c(sc(NC(=S)NC(=O)c3ccccc3)c2C(=O)O)CO1

# Same assay, conditions: at 100 µM (top of the series)
row,% response (remaining GTP binding),SMILES
1,inactive,CC1(C)Cc2c(sc(NC(=S)NC(=O)c3cccc(Br)c3)c2C(=O)O)CO1
2,inactive,CC1(C)Cc2c(sc(NC(=S)Nc3ccccc3)c2C(=O)O)CO1
